Experimental data as given in patent publication US5384417A, “Heptitols” (priority 1994, dated 1995).
Where two headings read alike, the source gives them in different places.

Assays:
Format in all cases: biochemical
α-Galactosidase = biological target: T1, α-Galactosidase (Homo sapiens, UniProt P06280); test: inhibition of human liver α-galactosidase; conditions: read-out: % Inhibition of Glycosidase Activity, α-Galactosidase
T1 construct: Human liver glycosidases were assayed; from tissue; host or cells: human liver
T1 sequence (P06280 32-429): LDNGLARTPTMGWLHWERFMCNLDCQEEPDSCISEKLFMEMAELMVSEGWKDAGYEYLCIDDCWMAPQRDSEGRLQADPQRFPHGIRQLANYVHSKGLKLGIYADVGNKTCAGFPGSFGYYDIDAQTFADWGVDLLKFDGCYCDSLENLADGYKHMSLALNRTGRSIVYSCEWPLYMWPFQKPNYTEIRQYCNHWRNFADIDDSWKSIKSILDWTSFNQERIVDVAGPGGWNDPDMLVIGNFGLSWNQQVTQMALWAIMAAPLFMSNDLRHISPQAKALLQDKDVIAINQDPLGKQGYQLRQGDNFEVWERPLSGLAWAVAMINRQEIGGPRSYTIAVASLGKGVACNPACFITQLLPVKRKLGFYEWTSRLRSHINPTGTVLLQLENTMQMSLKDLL
Experimental: (§1) Human liver glycosidases were assayed in the absence and presence [1 mM] of each of the potential inhibitors, using the appropriate buffered 4-methylumbelliferyl glycosides as substrates, as previously described.^17 See Table I, below.

Golgi α-Mannosidase = biological target: T2, Golgi α-Mannosidase (Homo sapiens, UniProt Q16706); test: inhibition of human liver Golgi α-mannosidase; conditions: 1 mM inhibitor; read-out: % Inhibition of Glycosidase Activity, α-Mannosidase Golgi
T2 construct: Human liver glycosidases were assayed; from tissue; host or cells: human liver
T2 sequence (Q16706 1-1144): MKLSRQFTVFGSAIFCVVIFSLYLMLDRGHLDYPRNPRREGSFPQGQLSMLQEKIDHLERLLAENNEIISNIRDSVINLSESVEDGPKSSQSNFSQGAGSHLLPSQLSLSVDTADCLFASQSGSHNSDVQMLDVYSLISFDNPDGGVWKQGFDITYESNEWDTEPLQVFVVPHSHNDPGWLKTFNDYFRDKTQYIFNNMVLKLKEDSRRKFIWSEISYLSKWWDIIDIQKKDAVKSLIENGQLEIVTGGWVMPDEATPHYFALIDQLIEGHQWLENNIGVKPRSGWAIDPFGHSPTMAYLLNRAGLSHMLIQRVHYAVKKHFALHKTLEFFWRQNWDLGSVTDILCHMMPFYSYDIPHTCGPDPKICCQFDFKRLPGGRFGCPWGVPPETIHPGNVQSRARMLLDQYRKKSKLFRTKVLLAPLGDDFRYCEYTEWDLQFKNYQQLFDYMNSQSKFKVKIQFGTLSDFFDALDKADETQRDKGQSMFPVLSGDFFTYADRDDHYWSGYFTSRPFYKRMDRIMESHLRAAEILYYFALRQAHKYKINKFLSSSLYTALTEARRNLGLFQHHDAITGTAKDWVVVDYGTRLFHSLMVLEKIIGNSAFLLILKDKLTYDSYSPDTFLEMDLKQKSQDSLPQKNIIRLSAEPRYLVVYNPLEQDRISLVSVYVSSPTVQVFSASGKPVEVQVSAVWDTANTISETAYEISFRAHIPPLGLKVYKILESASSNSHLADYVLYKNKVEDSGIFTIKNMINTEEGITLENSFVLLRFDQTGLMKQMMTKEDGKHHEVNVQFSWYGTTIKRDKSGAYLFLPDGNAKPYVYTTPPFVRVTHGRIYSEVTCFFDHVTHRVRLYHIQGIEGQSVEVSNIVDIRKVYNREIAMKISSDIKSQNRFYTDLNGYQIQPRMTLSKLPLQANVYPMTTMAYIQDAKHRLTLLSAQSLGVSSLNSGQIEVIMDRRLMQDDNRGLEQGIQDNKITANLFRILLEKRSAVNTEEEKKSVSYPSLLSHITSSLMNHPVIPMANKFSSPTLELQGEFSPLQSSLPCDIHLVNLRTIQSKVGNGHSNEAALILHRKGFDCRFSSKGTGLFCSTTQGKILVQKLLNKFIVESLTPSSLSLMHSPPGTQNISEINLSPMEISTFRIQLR
Experimental: as §1

β-Hexosaminidase = test: inhibition of human liver β-hexosaminidase; conditions: for % Inhibition of Glycosidase Activity, β-Hexosaminidase: 1 mM inhibitor; for inhibition of β-hexosaminidase (in words): 1 mM
Experimental: as §1

α-mannosidases = test: inhibition of human liver α-mannosidases (multiple forms taken together); conditions: for inhibition of α-mannosidases (in words): 1 mM
Experimental: as §1

β-Xylosidase = biological target: T3, β-Xylosidase (Homo sapiens, UniProt Q9H227); test: inhibition of human liver β-xylosidase; conditions: 1 mM inhibitor; read-out: % Inhibition of Glycosidase Activity, β-Xylosidase
T3 construct: Human liver glycosidases were assayed; from tissue; host or cells: human liver
T3 sequence (Q9H227 1-469): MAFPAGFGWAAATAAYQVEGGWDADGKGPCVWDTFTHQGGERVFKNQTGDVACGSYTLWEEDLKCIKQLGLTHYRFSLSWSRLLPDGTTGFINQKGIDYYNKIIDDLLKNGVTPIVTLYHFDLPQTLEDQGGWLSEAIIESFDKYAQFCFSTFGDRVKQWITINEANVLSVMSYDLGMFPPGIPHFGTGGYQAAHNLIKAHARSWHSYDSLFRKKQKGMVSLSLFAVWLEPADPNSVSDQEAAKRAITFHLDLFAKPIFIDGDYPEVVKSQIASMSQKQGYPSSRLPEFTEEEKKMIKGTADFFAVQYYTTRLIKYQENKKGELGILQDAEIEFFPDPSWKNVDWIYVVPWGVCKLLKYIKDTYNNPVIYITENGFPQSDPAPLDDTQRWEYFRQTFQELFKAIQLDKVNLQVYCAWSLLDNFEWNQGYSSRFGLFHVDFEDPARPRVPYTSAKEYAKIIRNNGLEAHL
Experimental: as §1

α-Fucosidase = biological target: T4, α-Fucosidase (Homo sapiens, UniProt P04066); test: inhibition of human liver α-fucosidase; conditions: for inhibition of α-fucosidase (in words): 1 mM; for inhibition at 1000 µM: 1 mM inhibitor, read-out: % Inhibition of Glycosidase Activity, α-Fucosidase
T4 construct: Human liver glycosidases were assayed; from tissue; host or cells: human liver
T4 sequence (P04066 32-466): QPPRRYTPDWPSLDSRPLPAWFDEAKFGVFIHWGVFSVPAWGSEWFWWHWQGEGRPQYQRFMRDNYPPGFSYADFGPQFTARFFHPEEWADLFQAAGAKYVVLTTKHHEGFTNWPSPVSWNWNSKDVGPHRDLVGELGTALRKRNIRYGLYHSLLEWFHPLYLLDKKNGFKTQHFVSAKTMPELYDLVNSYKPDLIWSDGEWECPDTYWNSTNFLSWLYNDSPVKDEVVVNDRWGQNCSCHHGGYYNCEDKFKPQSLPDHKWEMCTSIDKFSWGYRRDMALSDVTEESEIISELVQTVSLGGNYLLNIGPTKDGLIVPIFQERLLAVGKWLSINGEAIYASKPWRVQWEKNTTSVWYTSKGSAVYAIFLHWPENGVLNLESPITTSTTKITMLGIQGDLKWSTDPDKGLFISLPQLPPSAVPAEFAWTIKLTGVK
Experimental: as §1

[1] = listed as α-(aminomethyl)-1-deoxy-mannofuranose (5)

Row | Compound | inhibition at 1000 µM (α-Galactosidase; 1 mM inhibitor) [%] | inhibition at 1000 µM (Golgi α-Mannosidase) [%] | % Inhibition of Glycosidase Activity, β-Hexosaminidase (β-Hexosaminidase) [%] | inhibition of α-mannosidases (in words) (α-mannosidases) | inhibition at 1000 µM (β-Xylosidase) [%] | inhibition at 1000 µM (α-Galactosidase) [%] | inhibition of α-fucosidase (in words) (α-Fucosidase) | inhibition of β-hexosaminidase (in words) (β-Hexosaminidase) | inhibition at 1000 µM (α-Fucosidase) [%] | inhibition of α-fucosidase (in words) (α-Fucosidase; [1]) | inhibition of α-mannosidases (in words) (α-mannosidases; [1]) | inhibitory activity against α-mannosidase relative to DMJ (α-mannosidases; compared with DMJ (1)) | selectivity for α-mannosidases (in words) (α-mannosidases; compared with parent compound DMJ (1))
1 | OC[C@@H](O)[C@H]1NC[C@@H](O)[C@H]1O [DIM (3)] | 0 | 96 | 28 | much more potent inhibitor than the piperidine analogues (1) and (2) of all the mannosidases investigated | 45 |  |  |  |  |  |  |  | 
2 | OC[C@H]1NC[C@@H](O)[C@@H](O)[C@@H]1O [DMJ (1), deoxymannojirimycin] |  | 45 | 55 |  | 3 | 0 | potent inhibition of α-fucosidase | moderate inhibition of β-hexosaminidase |  |  |  |  | 
3 | NC[C@H]1O[C@H]([C@H](O)CO)[C@H](O)[C@@H]1O [Manhepamine (5), 1-amino-2,5-anhydro-1-deoxy-D-glycero-D-talo-heptitol] | 0 |  | 46 | did not inhibit any of the α-mannosidases | 6 |  | moderate inhibition of α-fucosidase | weak inhibitory properties towards β-N-acetylhexosaminidase | 77 | moderate inhibitor of α-fucosidase | relatively inactive against α-mannosidases |  | 
4 | OC[C@@H](O)[C@H]1N[C@H](CO)[C@@H](O)[C@H]1O [αHomoDIM (4), 2,5-dideoxy-2,5-imino-D-glycero-D-talo-heptitol] | 11 | 92 | 0 | still retaining significant inhibitory properties towards α-mannosidases | 21 |  | much less potent |  | 27 |  |  | about twice as effective as DMJ | 
5 | OC[C@H]1N[C@H](CO)[C@@H](O)C(O)[C@@H]1O (stereo partly shown) [αHomoDMJ (2)] | 0 | 56 | 1 | does not affect appreciably the inhibition of the multiple forms of α-mannosidase | 0 |  | decrease markedly the potent inhibition of α-fucosidase | abolish the moderate inhibition of β-hexosaminidase | 29 |  |  |  | much more selective inhibitor of α-mannosidases than is the parent compound DMJ (1)
